Here are results for 89 compounds from PubChem BioAssay AID1013 (Columbia University Molecular Screening Center, 2008).

Activity calls are given as the source filed them. How the calls were made is not given here.

The assay is described as follows: inhibitors of TNFa-induced VCAM1 expression, confirmation, imaging, TNFa stimulus, retest and dose response (AID 1013).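 On cell count: compound on cells 1 h before TNFa then 24 h more.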 Particulars: TNFa-stimulated cells, VCAM1 expression imaging; for inhibition: at 2 µM, stronger effect = higher value; for cell count: at 10 µM, stronger effect = lower value.

On to `Cc1cc(C(=O)NN)c2cc(Br)ccc2n1`, for which the inhibition was -7.2% (inactive).
On the same count and under the same terms, for `Cc1cc(C)n(-c2nc3ccccc3nc2N2CCN(C(=O)c3ccc(Cl)cc3)CC2)n1` the value was -5.2% (inactive); for `COc1ccc(OC)c2sc(NC(=O)CCS(=O)(=O)c3ccccc3)nc12`, 23% (inactive).
For the compound `C=CCOc1c2ccc(C(=O)NCc3ccccc3OC)cc2nn1C`, the inhibition is 4.3% (inactive).
On the same count and under the same terms, in the case of `FC(F)(F)c1cc(-c2ccc3c(c2)OCO3)nc(NCc2ccco2)n1` it was 16.2% (inactive); in that of `COc1cc(CC(=O)Nc2ncc(C)s2)cc(OC)c1OC`, -6.6% (inactive); in that of `COCCCNC(=O)c1cn(C)c(=O)c2cc(OC)c(OC)cc12`, 4.1% (inactive).
`N/C(Cc1cccs1)=N\OC(=O)COc1ccc(Br)cc1Cl`: the inhibition was 8.2% (inactive).
Same read-out and setting: in the case of `COc1ccc(Cl)c(NC(=O)Nc2c(C)n(-c3ccccc3)c(=O)n2C)c1` it was -17.4% (inactive).
Turning to `CSc1nc2sc(-c3ccccc3)cc2c(=O)n1N`, the inhibition was 8.1% (inactive).
For the compound `Cc1ccc(-n2nc3ccc(NC(=O)/C=C/c4ccco4)cc3n2)cc1C`, the inhibition is 14% (inactive).
Still for that read-out and setting: for `CCOc1ccc(C=O)cc1CN1CCCCC1` the value was 1.5% (inactive).
The same measure, in the same setting: for `O=c1c(-c2ccc(Br)cc2)coc2c(CN3CCOCC3)c(O)ccc12` the value was -12.4% (inactive); for `COc1ccc(NC(=O)N2CCn3c2nc2ccccc23)cc1`, 13% (inactive); for `CC(=O)Nc1ccc(S(=O)(=O)n2cnc(C)c2)cc1`, -13.1% (inactive).
As for `Cn1c(NCc2c[nH]c3ccccc23)nc2ccccc21`, the inhibition was 18% (inactive).
In the case of `COC1(c2ccccc2)NC(=S)NN=C1c1ccccc1` (stereo unspecified), the inhibition was -8.1% (inactive).
Take `O=C(Nc1ncc2c(n1)CC(c1ccco1)CC2=O)c1ccc(Cl)cc1` (stereo unspecified): the inhibition is -0.3% (inactive).
On the same count and under the same terms, in the case of `COc1ccc(-c2nnc(SCC(=O)NC3CCCCC3)o2)cc1OC` it was -4.1% (inactive); in that of `Clc1ccc(C2=Nn3c(nnc3-c3cccnc3)SC2)s1`, 13% (inactive); in that of `CCOC(=O)N1CCC(NC(=O)c2ccc(CS(=O)(=O)c3ccc(OC)cc3)o2)CC1`, -7.8% (inactive).
As for `O=C(Oc1ccc2ccc(=O)oc2c1)N1CCOCC1`, the inhibition was 1.4% (inactive).
`C=CCNC(=O)c1nn2cccnc2c1Cl`: the inhibition is 3.3% (inactive).
Still for that read-out and setting: for `CSc1nnc2n(-c3ccccc3)c(=O)c3c4c(sc3n12)CCC4` the value was -8.1% (inactive); for `O=C(CSc1nc2ccccc2s1)NNC(=S)Nc1ccc(Br)cc1`, 1.8% (inactive); for `Cc1nn(-c2cc(C)c3ccccc3n2)c2c1C1C(C2)C1(C)C` (stereo unspecified), -11.4% (inactive).
On to `CCOC(=O)N1CCN(C(=O)COc2ccc(Cl)cc2C)CC1`, for which the inhibition is 5.2% (inactive).
The same measure, in the same setting: for `CCOC(=O)C1C(=O)NC(N2CCCCC2)=NC1c1ccco1` (stereo unspecified) the value was -0.9% (inactive); for `CSC1=NCCN1C(=O)Cc1ccc(Cl)cc1`, -11.8% (inactive).
Same read-out and setting: in the case of `CCn1c(=O)cc(OCC(=O)NCc2ccco2)c2ccccc21` it was -6.7% (inactive).
On the same count and under the same terms, for `COc1ccc(S(=O)(=O)Nc2nc3n(n2)C(c2ccc(Cl)cc2)CC(=O)N3)cc1` (stereo unspecified) the value was -17.4% (inactive).
For the compound `CCCn1c(SCC(=O)NCc2ccco2)nnc1C(C)C`, the inhibition was -9.8% (inactive).
On the same count and under the same terms, in the case of `COc1ccc(-c2cc(C(=O)Nc3cc(C)n(Cc4ccc(Cl)cc4)n3)no2)cc1OC` it was 11.7% (inactive); in that of `Cc1ccc(C(=O)CSc2nnc(COc3ccc(C#N)cc3)n2-c2ccccc2)cc1`, -0.7% (inactive).
The same measure, in the same setting: for `CCOC(=O)c1ccc(NC(=O)CCNc2c(N3CCCC3)c(=O)c2=O)cc1` the value was -10.3% (inactive).
Take `COc1cccc(/C=N/Nc2nc(Nc3ccccc3)nc(-n3nc(C)cc3C)n2)c1O`: the inhibition is -11.8% (inactive).
As for `COC(=O)c1c(NC(=O)c2ccc(S(=O)(=O)N3CCOCC3)cc2)sc2c1CCN(C)C2`, the inhibition was -5.4% (inactive).
Same read-out and setting: for `CCC(=O)Nc1cccc(NC(=O)c2cc3ccccc3o2)c1` the value was -3.1% (inactive); for `Cc1ccccc1-c1nc(CN2CCC(C(=O)NCCCN3CC(C)CC(C)C3)CC2)c(C)o1` (stereo unspecified), 21.3% (inactive); for `O=C1CC(c2ccccc2)Cc2nc3ncnn3cc21` (stereo unspecified), -11.3% (inactive).
For the compound `Cc1noc(C)c1S(=O)(=O)N1CCC2(CC1)OCCO2`, the inhibition was 7.1% (inactive).
Consider `CCCc1sc(N/N=C/c2ccccn2)nc1-c1ccc(Br)cc1`, for which the inhibition was 7.8% (inactive).
For `Cc1cc(C(=O)NN=C2C3CC4CC(C3)CC2C4)c2ccccc2n1`, the inhibition was -1.3% (inactive).
Same read-out and setting: in the case of `CCOC(=O)c1ccc(N2C(=O)CC(N3CCC(O)(c4ccc(Br)cc4)CC3)C2=O)cc1` (stereo unspecified) it was -13.9% (inactive); in that of `CCOc1ccccc1/C=N/Nc1ccccc1[N+](=O)[O-]`, 5.1% (inactive).
Same read-out and setting: for `CCN1CCN(Cc2c(C)[nH]c3ccc(C(=O)OC)cc3c2=O)CC1` the value was 8.5% (inactive); for `CNC(=O)CN(c1ccc(OC)cc1)S(=O)(=O)c1ccc(F)cc1`, 6.8% (inactive); for `CCn1c(SCC(=O)NC(C)c2ccccc2)nc2ccccc21` (stereo unspecified), -13.3% (inactive).
For `COc1ccc(CC(=O)Nc2ccc(-c3noc(-c4cccc(OC)c4)n3)cc2)cc1`, the inhibition is 5.5% (inactive).
For the compound `CN1CCCCc2c1[nH]c1ccccc1c2=O`, the inhibition was 5.5% (inactive).
Still for that read-out and setting: in the case of `Cn1c(NC(=O)C2c3ccccc3Oc3ccccc32)cc(=O)n(C)c1=O` it was -2.7% (inactive); in that of `COc1cccc(C(=O)Nc2cccc(-c3nc4ncccc4o3)c2C)c1`, 2.2% (inactive); in that of `O=C(NCCO)C(c1ccccc1)c1ccccc1`, -14.4% (inactive).
In the case of `CCOC(=O)c1ccc(NC(=O)Cn2nnc(-c3ccccc3)n2)cc1`, the inhibition was -10% (inactive).
Take `CO/N=C/C(=N\Nc1ccc(C)cc1)C(=O)c1ccc(OC)cc1`: the inhibition was 29% (inactive).
Take `OCCNCC(O)Cn1ccc2ccccc21` (stereo unspecified): the inhibition was -5.6% (inactive).
Same read-out and setting: in the case of `CCCNS(=O)(=O)c1ccc2c(c1)CCCN2C(C)=O` it was -18.5% (inactive).
Consider `COC(=O)CSc1nc2nc(C)c(Br)cc2[nH]1`, for which the inhibition was -12.6% (inactive).
On the same count and under the same terms, for `Nc1nc2c3ccccc3nc(Cc3ccccc3)n2n1` the value was -8.7% (inactive); for `O=C(c1ccc2snnc2c1)N1CCSCC1`, 8.5% (inactive).
On the same count and under the same terms, in the case of `CCOc1cc(/C=C2/C(=O)N(c3ccccc3)N=C2C)ccc1OC(=O)c1ccco1` it was 3.9% (inactive); in that of `CCCCN(C(=O)NC(=O)Nc1cccc(C)c1C)S(C)(=O)=O`, 9.3% (inactive).
With `CCOC(=O)c1cnc(-n2nc(C)cc2C)nc1NCc1ccccc1`, the inhibition was 7.9% (inactive).
Take `Cc1nc([N+](=O)[O-])c(Br)n1CC(=O)c1ccc(Br)cc1`: the inhibition is 27% (inactive) and the cell count was 116%.
On to `O=C(Cn1cccc1C(=O)c1ccccc1)NCCN1CCOCC1`, for which the inhibition was -13.5% (inactive).
Same read-out and setting: for `CCOC(=O)/C(=C\c1cccnc1)C(=O)c1cc(C(C)=O)c(Nc2ccccc2)s1` the value was 19.8% (inactive).
On the same count and under the same terms, in the case of `Cc1nnc(SCc2cn3ccsc3n2)n(N)c1=O` it was -9.6% (inactive); in that of `O=C1C(Cc2ccccc2)NC(=S)N1c1ccccc1` (stereo unspecified), 9.6% (inactive); in that of `CC(C)C(=O)N1CCN(c2nc(-c3ccccc3)c3c(c2C#N)CC(C)(C)OC3)CC1`, 5.1% (inactive).
On the same count and under the same terms, in the case of `NCCN1CCN(CCN)CC1` it was -8.3% (inactive); in that of `C/C(Cl)=C\Cn1c(NCCCn2ccnc2)nc2c1c(=O)n(C)c(=O)n2C`, 4.7% (inactive).
As to `N=C1C(c2nc3ccccc3s2)=C(O)CN1Cc1ccco1`, the inhibition is -3% (inactive).
On to `C=CCn1c(N2CCCC2)nc2c1c(=O)[nH]c(=O)n2C`, for which the inhibition is 7.9% (inactive).
The same measure, in the same setting: for `Cn1nc(C(=O)NCC2CCCO2)c2ccccc2c1=O` (stereo unspecified) the value was -9% (inactive); for `COC(=O)c1ccc(-n2nnnc2SCC(=O)N2CCCCC2)cc1`, 0.2% (inactive).
As to `C=CCCCOc1ccc(C(=O)O)cc1`, the inhibition is 8.3% (inactive).
In the case of `COc1ccc(CCN(Cc2cc3cccc(C)c3[nH]c2=O)C(=O)N2CCCC2)cc1OC`, the inhibition is 5.6% (inactive).
In the case of `Cc1ccc(C)c(NC(=S)NC(NC(=O)Cc2cccc3ccccc23)C(Cl)(Cl)Cl)c1` (stereo unspecified), the inhibition was 75.3% (inactive) and the cell count was 99.3%.
On to `Cc1oc(-c2ccc(Cl)cc2)cc1-c1nn2c(-c3ccoc3C)nnc2s1`, for which the inhibition was -0.1% (inactive).
With `O=C(NCc1cccs1)c1nc2c(nnn2Cc2ccccc2Cl)c(=O)[nH]1`, the inhibition was 13.8% (inactive).
In the case of `O=C(Nc1ccccc1)/C(=C\c1ccc2c(c1)OCO2)NC(=O)c1ccco1`, the inhibition is -3% (inactive).
On the same count and under the same terms, in the case of `CC(C)Sc1nc2c(c(=O)n1-c1ccc(F)cc1)SCC2` it was 7.4% (inactive).
On the same count and under the same terms, in the case of `COc1ccc(C(C)(C)C)cc1S(=O)(=O)N1CCN(C)CC1` it was -3.3% (inactive); in that of `O=C(CCCCCN1C(=O)c2ccccc2C1=O)Nc1nccs1`, -4.8% (inactive).
As to `O=C(O)c1c[nH]c2ccc(S(=O)(=O)N3CCOCC3)cc12`, the inhibition was 1.4% (inactive).
Take `Cc1ccc(OCc2ccoc2C(=O)O)cc1C`: the inhibition is 2.2% (inactive).
The same measure, in the same setting: in the case of `O=C(Nc1ccccc1)c1nnsc1S(=O)(=O)c1ccc(Cl)cc1` it was 20.4% (inactive).
Take `O=C(O)C1CC=CCC1C(=O)N1CCCC1` (stereo unspecified): the inhibition was -1.4% (inactive).
The same measure, in the same setting: in the case of `CC1Cc2cc(-c3csc(NC(=O)Cc4cccs4)n3)ccc2N1S(C)(=O)=O` (stereo unspecified) it was 0.8% (inactive).

As usually defined, the inhibition is the change of the read-out against control, counted positive when it falls.
